# Test results as given in patent publication US20250289790A1, “UV LIGHT STABILIZERS” (BASF SE, priority 2022, published 2025).
# Test: Solubility at room temperature in xylene / toluene
# Type: physicochemical
smiles,measurement,setting,value
CC(C)(C)c1cc(CCC(=O)OCC(COC(=O)CCc2cc(-n3nc4ccc(Cl)cc4n3)c(O)c(C(C)(C)C)c2)(COC(=O)CCc2cc(-n3nc4ccc(Cl)cc4n3)c(O)c(C(C)(C)C)c2)COC(=O)CCc2cc(-n3nc4ccc(Cl)cc4n3)c(O)c(C(C)(C)C)c2)cc(-n2nc3ccc(Cl)cc3n2)c1O [Example C3],soluble in xylene,,less than 1%
same,Solubility at room temperature [g] xylene,room temperature,2 g
